Key:
[1] = test system: DMM mice (C57BL/6); experiment: Slowing progression of OA in DMM post-traumatic OA mouse model (Safranin O staining, OARSI score); type: in vivo; settings: for cartilage damage (fibrillation, erosion, loss of aggrecans) by Safranin O staining: oral daily for 8 weeks; for mean OARSI score ± standard deviation: oral gavage daily for 8 weeks, Carvacrol 50 mg/kg, Curcumin 50 mg/kg, EGCG 5 mg/kg, OPC 50 mg/kg or combination, score 0 healthy to 6 severe erosion, 8 animals/group
From the text: Induction of osteoarthritis in mice. All studies were approved by the Albert Einstein College of Medicine Institutional Animal Care and Use Committee. Destabilization of the medial meniscus (DMM) was established in adult C57BL/6 mice (male, 5-6 months) by surgically transecting the medial meniscotibial ligament (MMTL) in the right hind limb (36). Briefly, the joint capsule immediately medial to the patellar tendon was incised, followed by blunt dissection of the fat pad, to provide visualization of the MMTL of the medial meniscus. The MMTL was transected, leading to DMM. In the sham surgery, the MMTL was visualized but not transected. The joint capsule and skin were closed with suture.
Animals were euthanized, hindlimbs were fixed in formalin, decalcified in formic acid, embedded in paraffin and sectioned for histology and immunohistochemistry. Sections were incubated overnight at 4° C. with antibodies against cleaved aggrecan (NITEGE, Ibex) and cleaved type II collagen (Col2-3/4M, Ibex), MMP-13 (Abcam), and ADAMTS5 (Abcam) followed by incubation with anti-mouse or anti-rabbit secondary antibody (Biocare Medical) and visualization with DAB chromagen (Vector Laboratories). Negative controls were stained with irrelevant isotype-matched antibodies (Biocare Medical). Safranin O-fast green staining was used to visualize proteoglycans in the articular cartilage. Severity of OA was evaluated for each mouse using the Osteoarthritis Research Society International (OARSI) scoring system (34) Immunostaining intensity for type II collagen or aggrecan cleavage epitopes was quantified by determining the “reciprocal intensity” of the stained articular cartilage matrix. Briefly, the light intensity value of random locations within azones from the posterior to anterior direction of the femoral and tibial condyles was measured using the color picker in Adobe Photoshop (37). Percentages of positive MMP-13 and ADAMTS5 chondrocytes were determined by counting the number of immunostained cells and dividing by the total number of chondrocytes visualized by a hematoxylin counterstain (Vector Laboratories).
To determine the efficacy of the C′-CEO formulation in slowing progression of OA in vivo, a well-established post-traumatic mouse model of OA was used. These OA mice were orally administered C′-CEO, individual compounds, or placebo daily. Severity of OA was evaluated 8 weeks after induction of OA, using a well-established and FDA recommended cartilage integrity stain, Safranin O, and a semi-quantitative Osteoarthritis Research Society International (OARSI) scoring system. Furthermore, the efficacy of the C′-CEO formulation was validated by examining the level of breakdown of two major cartilage matrix proteins, type II collagen and aggrecan, as cartilage degradation is a hallmark of OA. It was further examined how the C′-CEO formulation may have such effect by targeting CITED2 by examining CITED2 expression in the articular cartilage of these OA mice.
All studies were approved by the Albert Einstein College of Medicine Institutional Animal Care and Use Committee. Destabilization of the medial meniscus (DMM) was established in adult C57BL/6 mice (male, 5-6 months) by surgically transecting the medial meniscotibial ligament (MMTL) in the right hind limb Immediately after surgery, mice were administered either carvacrol (C′), curcumin (C), EGCG (E), OPC(O), C′-CEO, or vehicle control for 8 weeks. At 8 weeks following surgery, animals were euthanized, the hindlimbs were fixed in formalin, decalcified in formic acid, embedded in paraffin and sectioned for histology. Safranin O, a well-stablished cartilage stain, was used to visualize integrity of the articular cartilage and aggrecans in the articular cartilage. Severity of OA was evaluated using the OARSI scoring system.

[2] = test system: DMM mice (C57BL/6); experiment: Tactile sensitivity testing (von Frey) in DMM OA mice; type: in vivo; settings: oral administration, 8 weeks, summary over von Frey and open field tests
Method: Mice were acclimated for 30 minutes in individual chambers on top of a wire grid platform prior to von Frey testing. The plantar surface of the hind paw was stimulated with ascending force intensities of von Frey filaments (Stoelting) to determine tactile sensitivity. A positive response was defined as a rapid withdrawal of the hind paw when the stimulus was applied, and the number of positive responses for each stimulus was recorded. Tactile threshold was defined as a withdrawal response in 5 out of 10 trials to a given stimulus intensity (38). This threshold was calculated once per animal.
To determine pain relief, three animal behavior assessments were used: 1) von Frey, which determined sensitivity to mechanical stimuli [OA animals tend to have lower thresholds of pain to mechanical stimuli]; 2) distance traveled—a measure of joint movement [OA animals tend to move a lesser distance compared to non-OA animals]; 3) rearing—a measure of joint function [OA animals tend to rear, or stand up on their hind limbs less than non-OA animals].

## Cc1ccc(C(C)C)cc1O [Carvacrol]
[1]
  cartilage damage (fibrillation, erosion, loss of aggrecans) by Safranin O staining: some reduction in cartilage degradation
  mean OARSI score ± standard deviation: 2.9 ± 0.45
[2]
  pain relief of OA-associated pain (overall: mechanical sensitivity, joint movement and function): did not result in a statistical improvement in pain relief

## COc1cc(/C=C/C(=O)CC(=O)/C=C/c2ccc(O)c(OC)c2)ccc1O [Curcumin]
[1]
  cartilage damage (fibrillation, erosion, loss of aggrecans) by Safranin O staining: some reduction in cartilage degradation
  mean OARSI score ± standard deviation: 2.4 ± 0.42
[2]
  pain relief of OA-associated pain (overall: mechanical sensitivity, joint movement and function): did not result in a statistical improvement in pain relief

## Epigallocatechin-3-gallate [EGCG]
[1]
  cartilage damage (fibrillation, erosion, loss of aggrecans) by Safranin O staining: some reduction in cartilage degradation
  mean OARSI score ± standard deviation: 2.1 ± 0.29
[2]
  pain relief of OA-associated pain (overall: mechanical sensitivity, joint movement and function): did not result in a statistical improvement in pain relief

From patent publication US10772846B2, “Methods and compositions for treating and preventing arthritis” (Montefiore Medical Center, priority 2014, dated 2020)
